melting point [°C] | Structure (SMILES)
89 to 92 | CCCCN1CC(=O)Nc2ccc(Cl)cc2C1C(F)(F)F (centres unmarked) [compound 100, 7-Chloro-4-butyl-1,5-dihydro-5-(trifluoromethyl)-1,4-benzodiazepin-2-one]
120 to 125 | CC(C)=CCN1CC(=O)Nc2ccc(Cl)cc2C1C(F)(F)F (centres unmarked) [compound 101, 7-Chloro-4-(3-methyl-2-butenyl)-1,5-dihydro-5-(trifluoromethyl)-1,4-benzodiazepin-2-one]
184 to 187 | O=C1CN(Cc2ccccn2)C(C(F)(F)F)c2cc(Cl)ccc2N1 (centres unmarked) [compound 102, 7-Chloro-4-(2-pyridylmethyl)-1,5-dihydro-5-(trifluoromethyl)-1,4-benzodiazepin-2-one]
196 to 220 | Cc1ncc(CN2CC(=O)Nc3ccc(Cl)cc3C2C(F)(F)F)s1 (centres unmarked) [compound 103, 7-Chloro-4-(2-methyl-5-thiazolylmethyl)-1,5-dihydro-5-(trifluoromethyl)-1,4-benzodiazepin-2-one]
200 to 205 | Cc1ccc(CN2CC(=O)Nc3ccc(Cl)cc3C2C(F)(F)F)nc1 (centres unmarked) [compound 104, 7-Chloro-4-(5-methyl-2-pyridylmethyl)-1,5-dihydro-5-(trifluoromethyl)-1,4-benzodiazepin-2-one]
184 to 186 | O=C1CN(Cc2cccc(Cl)n2)C(C(F)(F)F)c2cc(Cl)ccc2N1 (centres unmarked) [compound 105, 7-Chloro-4-(6-chloro-2-pyridylmethyl)-1,5-dihydro-5-(trifluoromethyl)-1,4-benzodiazepin-2-one]
123 to 124 | CCCN1CC(=O)Nc2ccc(Cl)cc2C1C(F)(F)F (centres unmarked) [compound 106, 7-Chloro-4-propyl-1,5-dihydro-5-(trifluoromethyl)-1,4-benzodiazepin-2-one]
87 to 88 | CCCCCCN1CC(=O)Nc2ccc(Cl)cc2C1C(F)(F)F (centres unmarked) [compound 107, 7-Chloro-4-hexyl-1,5-dihydro-5-(trifluoromethyl)-1,4-benzodiazepin-2-one]
114 to 115 | CCCCCN1CC(=O)Nc2ccc(Cl)cc2C1C(F)(F)F (centres unmarked) [compound 108, 7-Chloro-4-pentyl-1,5-dihydro-5-(trifluoromethyl)-1,4-benzodiazepin-2-one]
89 to 91 | O=C1CN(CCCc2ccccc2)C(C(F)(F)F)c2cc(Cl)ccc2N1 (centres unmarked) [compound 109, 7-Chloro-4-(3-phenylpropyl)-1,5-dihydro-5-(trifluoromethyl)-1,4-benzodiazepin-2-one]
142 to 143 | O=C1CN(Cc2ccccc2)C(C(F)(F)F)c2cc(Cl)ccc2N1 (centres unmarked) [compound 110, 7-Chloro-4-benzyl-1,5-dihydro-5-(trifluoromethyl)-1,4-benzodiazepin-2-one]
94 to 96 | CCCCCN1CC(=O)Nc2ccc(Cl)cc2C1C(F)(F)F (centres unmarked) [compound 111, 7-Chloro-4-pentyl-1,5-dihydro-5-(trifluoromethyl)-1,4-benzodiazepin-2-one]
197 to 198 | Cc1ccccc1CN1CC(=O)Nc2ccc(Cl)cc2C1C(F)(F)F (centres unmarked) [compound 113, 7-Chloro-4-(2-methylbenzyl)-1,5-dihydro-5-(trifluoromethyl)-1,4-benzodiazepin-2-one]
161 to 162 | O=C1CN(Cc2ccccc2Br)C(C(F)(F)F)c2cc(Cl)ccc2N1 (centres unmarked) [compound 114, 7-Chloro-4-(2-bromobenzyl)-1,5-dihydro-5-(trifluoromethyl)-1,4-benzodiazepin-2-one]
171 to 172 | O=C1CN(Cc2c(F)cccc2Cl)C(C(F)(F)F)c2cc(Cl)ccc2N1 (centres unmarked) [compound 115, 7-Chloro-4-(2-chloro-6-fluorobenzyl)-1,5-dihydro-5-(trifluoromethyl)-1,4-benzodiazepin-2-one]
184 to 185 | N#Cc1ccccc1CN1CC(=O)Nc2ccc(Cl)cc2C1C(F)(F)F (centres unmarked) [compound 116, 7-Chloro-4-(2-cyanobenzyl)-1,5-dihydro-5-(trifluoromethyl)-1,4-benzodiazepin-2-one]
173 to 174 | O=C1CN(Cc2c(F)cccc2F)C(C(F)(F)F)c2cc(Cl)ccc2N1 (centres unmarked) [compound 117, 7-Chloro-4-(2,6-difluorobenzyl)-1,5-dihydro-5-(trifluoromethyl)-1,4-benzodiazepin-2-one]
171 to 172 | COc1cccc(CN2CC(=O)Nc3ccc(Cl)cc3C2C(F)(F)F)c1 (centres unmarked) [compound 118, 7-Chloro-4-(3-methoxybenzyl)-1,5-dihydro-5-(trifluoromethyl)-1,4-benzodiazepin-2-one]
241 to 242 | N#Cc1cccc(CN2CC(=O)Nc3ccc(Cl)cc3C2C(F)(F)F)c1 (centres unmarked) [compound 120, 7-Chloro-4-(3-cyanobenzyl)-1,5-dihydro-5-(trifluoromethyl)-1,4-benzodiazepin-2-one]
145 to 146 | COc1ccccc1CN1CC(=O)Nc2ccc(Cl)cc2C1C(F)(F)F (centres unmarked) [compound 121, 7-Chloro-4-(2-methoxybenzyl)-1,5-dihydro-5-(trifluoromethyl)-1,4-benzodiazepin-2-one]
105 to 107 | O=C1CN(Cc2cccs2)C(C(F)(F)F)c2cc(Cl)ccc2N1 (centres unmarked) [compound 122, 7-Chloro-4-(2-thienylmethyl)-1,5-dihydro-5-(trifluoromethyl)-1,4-benzodiazepin-2-one]
148 to 150 | O=C1CN(Cc2ccsc2)C(C(F)(F)F)c2cc(Cl)ccc2N1 (centres unmarked) [compound 123, 7-Chloro-4-(3-thienylmethyl)-1,5-dihydro-5-(trifluoromethyl)-1,4-benzodiazepin-2-one]
143 to 145 | O=C1CN(Cc2ccco2)C(C(F)(F)F)c2cc(Cl)ccc2N1 (centres unmarked) [compound 124, 7-Chloro-4-(2-furanylmethyl)-1,5-dihydro-5-(trifluoromethyl)-1,4-benzodiazepin-2-one]
66 to 67 | CCC(C)CCN1CC(=O)Nc2ccc(Cl)cc2C1C(F)(F)F (centres unmarked) [compound 125, 7-Chloro-4-(3-methylpentyl)-1,5-dihydro-5-(trifluoromethyl)-1,4-benzodiazepin-2-one]
146 to 148 | COc1cccnc1CN1CC(=O)Nc2ccc(Cl)cc2C1C(F)(F)F (centres unmarked) [compound 126, 7-Chloro-4-(3-methoxy-2-pyridylmethyl)-1,5-dihydro-5-(trifluoromethyl)-1,4-benzodiazepin-2-one]
121 to 123 | O=C1CN(CC#CC2CC2)C(C(F)(F)F)c2cc(Cl)ccc2N1 (centres unmarked) [compound 127, 7-Chloro-4-(3-cyclopropyl-2-propynyl)-1,5-dihydro-5-(trifluoromethyl)-1,4-benzodiazepin-2-one]
121 to 123 | CCCCC1(C(F)(F)F)N=CC(=O)Nc2ccc(Cl)cc21 (centres unmarked) [compound 128, 7-Chloro-5-butyl-1,5-dihydro-5-(trifluoromethyl)-1,4-benzodiazepin-2-one]
96 to 98 | CCCC#CCN1CC(=O)Nc2ccc(Cl)cc2C1C(F)(F)F (centres unmarked) [compound 129, 7-Chloro-4-(2-hexynyl)-1,5-dihydro-5-(trifluoromethyl)-1,4-benzodiazepin-2-one]
113 to 116 | CCC(C)CCN1CC(=O)Nc2ccc(Cl)cc2C1C(F)(F)F (centres unmarked) [compound 131, 7-Chloro-4-(3-methylpentyl)-1,5-dihydro-5-(trifluoromethyl)-1,4-benzodiazepin-2-one]

Reference: patent US6462037B1, “1,4-benzodiazepin-2-ones useful as HIV reverse transcriptase inhibitors” (Bristol-Myers Squibb Pharma Company, priority 1999, dated 2002)
